Source: PMC7180948, “New Insights into 4-Anilinoquinazolines as Inhibitors of Cardiac Troponin I–Interacting Kinase (TNNi3K)” (Molecules, 2020)

Assays:
Assay in all cases: biochemical
Set-up in all cases: KINOMEscan competition binding panel (Eurofins DiscoverX), single concentration, percent inhibition
Conditions in all cases: read-out: 15 at 1 µM % inhibition
[1] = biological target: T1, ABL1(F317I)-nonphosphorylated (Homo sapiens, UniProt P00519, F317I)
T1 construct: nonphosphorylated
Procedure, shortened: (§1)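 KINOMEscan binding panel of >400 kinases, run by Eurofins DiscoverX, with compounds tested at a single concentration of 1 µM.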

[2] = biological target: T2, ABL1(Q252H)-phosphorylated (Homo sapiens, UniProt P00519, Q252H)
T2 construct: phosphorylated
Procedure, shortened: as §1

ANKK1 = ANKK1 (Homo sapiens, UniProt Q8NFD2)
Procedure, shortened: as §1

CAMK2G = CAMK2G (Homo sapiens, UniProt Q13555)
Procedure, shortened: as §1

EGFR(S752-I759del) = EGFR(S752-I759del) (Homo sapiens, UniProt P00533, DEL752-759)
Procedure, shortened: as §1

FLT3(R834Q) = FLT3(R834Q) (Homo sapiens, UniProt P36888, R834Q)
Procedure, shortened: as §1

LTK = LTK (Homo sapiens, UniProt P29376)
Procedure, shortened: as §1

LZK = biological target: T3, LZK (Homo sapiens, UniProt O43283)
T3 construct: gene MAP3K13
Procedure, shortened: as §1

MAST1 = MAST1 (Homo sapiens, UniProt Q9Y2H9)
Procedure, shortened: as §1

MET = MET (Homo sapiens, UniProt P08581)
Procedure, shortened: as §1

MINK = biological target: T4, MINK (Homo sapiens, UniProt Q8N4C8)
T4 construct: gene MINK1
Procedure, shortened: as §1

MTOR = MTOR (Homo sapiens, UniProt P42345)
Procedure, shortened: as §1

NEK7 = NEK7 (Homo sapiens, UniProt Q8TDX7)
Procedure, shortened: as §1

NLK = NLK (Homo sapiens, UniProt Q9UBE8)
Procedure, shortened: as §1

PHKG1 = PHKG1 (Homo sapiens, UniProt Q16816)
Procedure, shortened: as §1

PIK3C2G = PIK3C2G (Homo sapiens, UniProt O75747)
Procedure, shortened: as §1

PRKCD = PRKCD (Homo sapiens, UniProt Q05655)
Procedure, shortened: as §1

PYK2 = biological target: T5, PYK2 (Homo sapiens, UniProt Q14289)
T5 construct: gene PTK2B
Procedure, shortened: as §1

RET(V804M) = RET(V804M) (Homo sapiens, UniProt P07949, V804M)
Procedure, shortened: as §1

SRPK1 = SRPK1 (Homo sapiens, UniProt Q96SB4)
Procedure, shortened: as §1

TAOK1 = TAOK1 (Homo sapiens, UniProt Q7L7X3)
Procedure, shortened: as §1

TNNI3K = TNNI3K (Homo sapiens, UniProt Q59H18)
Procedure, shortened: as §1

ZAK = biological target: T6, ZAK (Homo sapiens, UniProt Q9NYL2)
T6 construct: gene MAP3K20
Procedure, shortened: as §1

p38-beta = biological target: T7, p38-beta (Homo sapiens, UniProt Q15759)
T7 construct: gene MAPK11
Procedure, shortened: as §1

MET, sequence (P08581 whole entry): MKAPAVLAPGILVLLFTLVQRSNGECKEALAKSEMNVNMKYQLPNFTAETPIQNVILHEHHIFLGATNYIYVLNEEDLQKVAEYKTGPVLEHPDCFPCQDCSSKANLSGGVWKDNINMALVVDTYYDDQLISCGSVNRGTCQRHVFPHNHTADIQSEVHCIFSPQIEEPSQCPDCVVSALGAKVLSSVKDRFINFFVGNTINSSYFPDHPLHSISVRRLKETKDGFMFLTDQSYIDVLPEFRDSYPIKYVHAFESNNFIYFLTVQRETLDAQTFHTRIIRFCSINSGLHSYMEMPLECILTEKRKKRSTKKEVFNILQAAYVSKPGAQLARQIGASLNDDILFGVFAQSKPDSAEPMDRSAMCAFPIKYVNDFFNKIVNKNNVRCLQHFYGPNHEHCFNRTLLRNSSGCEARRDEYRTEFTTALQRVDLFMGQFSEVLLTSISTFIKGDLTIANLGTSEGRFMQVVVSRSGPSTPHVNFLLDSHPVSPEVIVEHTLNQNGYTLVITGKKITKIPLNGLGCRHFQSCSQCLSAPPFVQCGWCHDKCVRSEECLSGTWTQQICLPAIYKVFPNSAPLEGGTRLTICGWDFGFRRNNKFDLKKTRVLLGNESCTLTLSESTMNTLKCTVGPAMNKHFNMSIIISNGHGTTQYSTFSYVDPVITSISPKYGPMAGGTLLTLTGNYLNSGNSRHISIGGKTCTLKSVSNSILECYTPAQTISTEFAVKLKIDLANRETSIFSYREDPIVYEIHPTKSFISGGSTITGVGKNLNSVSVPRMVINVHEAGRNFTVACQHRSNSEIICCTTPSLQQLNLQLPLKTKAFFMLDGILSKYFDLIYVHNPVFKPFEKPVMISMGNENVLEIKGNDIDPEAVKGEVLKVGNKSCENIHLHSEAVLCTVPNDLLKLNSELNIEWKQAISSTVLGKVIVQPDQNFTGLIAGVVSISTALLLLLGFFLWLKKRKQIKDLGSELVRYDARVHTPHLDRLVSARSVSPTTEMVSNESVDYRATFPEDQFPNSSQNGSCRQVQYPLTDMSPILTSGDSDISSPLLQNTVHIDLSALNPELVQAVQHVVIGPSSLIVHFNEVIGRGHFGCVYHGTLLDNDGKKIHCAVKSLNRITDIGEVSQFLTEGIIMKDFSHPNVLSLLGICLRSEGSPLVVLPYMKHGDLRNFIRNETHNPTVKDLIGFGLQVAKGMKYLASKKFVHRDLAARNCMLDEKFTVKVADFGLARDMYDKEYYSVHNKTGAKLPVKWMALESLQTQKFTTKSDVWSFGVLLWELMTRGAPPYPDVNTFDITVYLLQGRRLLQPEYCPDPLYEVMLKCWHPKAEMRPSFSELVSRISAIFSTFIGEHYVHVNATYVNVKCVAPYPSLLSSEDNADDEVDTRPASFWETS
T3 sequence (O43283 whole entry): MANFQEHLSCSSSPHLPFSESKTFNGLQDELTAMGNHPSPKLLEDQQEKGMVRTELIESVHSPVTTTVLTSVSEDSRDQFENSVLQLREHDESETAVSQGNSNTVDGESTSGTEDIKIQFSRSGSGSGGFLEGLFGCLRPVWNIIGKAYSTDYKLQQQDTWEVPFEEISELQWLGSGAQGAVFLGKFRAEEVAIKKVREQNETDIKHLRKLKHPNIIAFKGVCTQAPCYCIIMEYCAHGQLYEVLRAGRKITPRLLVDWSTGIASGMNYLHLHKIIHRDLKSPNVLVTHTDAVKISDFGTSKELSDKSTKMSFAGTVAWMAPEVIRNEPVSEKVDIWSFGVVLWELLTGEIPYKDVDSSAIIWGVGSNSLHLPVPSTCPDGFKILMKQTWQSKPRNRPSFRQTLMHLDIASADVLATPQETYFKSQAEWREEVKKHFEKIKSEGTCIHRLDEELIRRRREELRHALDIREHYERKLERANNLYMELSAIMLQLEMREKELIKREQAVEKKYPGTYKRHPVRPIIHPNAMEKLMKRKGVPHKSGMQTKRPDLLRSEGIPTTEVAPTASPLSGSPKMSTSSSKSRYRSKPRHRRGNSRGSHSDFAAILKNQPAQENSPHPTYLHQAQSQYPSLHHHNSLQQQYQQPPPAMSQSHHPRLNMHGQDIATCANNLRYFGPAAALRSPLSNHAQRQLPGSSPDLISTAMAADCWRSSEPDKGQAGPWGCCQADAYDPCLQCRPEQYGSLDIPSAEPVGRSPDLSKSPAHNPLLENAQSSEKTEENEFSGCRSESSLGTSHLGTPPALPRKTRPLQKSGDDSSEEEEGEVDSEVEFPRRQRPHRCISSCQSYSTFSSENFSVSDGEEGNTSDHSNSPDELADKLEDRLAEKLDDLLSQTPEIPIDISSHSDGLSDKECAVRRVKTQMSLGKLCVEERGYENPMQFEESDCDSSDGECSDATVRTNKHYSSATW
PRKCD, sequence (Q05655 whole entry): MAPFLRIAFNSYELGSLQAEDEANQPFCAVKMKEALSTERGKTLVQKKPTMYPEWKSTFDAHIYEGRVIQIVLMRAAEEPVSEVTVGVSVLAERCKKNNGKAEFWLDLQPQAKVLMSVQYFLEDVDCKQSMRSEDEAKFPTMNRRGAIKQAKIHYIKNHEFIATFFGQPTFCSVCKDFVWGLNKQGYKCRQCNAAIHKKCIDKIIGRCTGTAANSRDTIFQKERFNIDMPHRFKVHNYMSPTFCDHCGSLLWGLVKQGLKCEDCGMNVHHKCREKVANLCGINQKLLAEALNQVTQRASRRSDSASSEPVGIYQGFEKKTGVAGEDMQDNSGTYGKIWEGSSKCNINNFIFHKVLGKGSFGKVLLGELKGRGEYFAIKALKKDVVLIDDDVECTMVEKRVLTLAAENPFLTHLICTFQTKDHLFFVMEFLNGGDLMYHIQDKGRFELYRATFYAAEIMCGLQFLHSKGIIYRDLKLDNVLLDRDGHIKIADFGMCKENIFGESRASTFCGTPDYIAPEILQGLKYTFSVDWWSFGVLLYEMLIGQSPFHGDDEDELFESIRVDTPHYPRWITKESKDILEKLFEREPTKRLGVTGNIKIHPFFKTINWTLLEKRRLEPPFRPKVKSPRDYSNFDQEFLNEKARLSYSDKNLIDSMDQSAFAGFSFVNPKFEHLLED
T6 sequence (Q9NYL2 whole entry): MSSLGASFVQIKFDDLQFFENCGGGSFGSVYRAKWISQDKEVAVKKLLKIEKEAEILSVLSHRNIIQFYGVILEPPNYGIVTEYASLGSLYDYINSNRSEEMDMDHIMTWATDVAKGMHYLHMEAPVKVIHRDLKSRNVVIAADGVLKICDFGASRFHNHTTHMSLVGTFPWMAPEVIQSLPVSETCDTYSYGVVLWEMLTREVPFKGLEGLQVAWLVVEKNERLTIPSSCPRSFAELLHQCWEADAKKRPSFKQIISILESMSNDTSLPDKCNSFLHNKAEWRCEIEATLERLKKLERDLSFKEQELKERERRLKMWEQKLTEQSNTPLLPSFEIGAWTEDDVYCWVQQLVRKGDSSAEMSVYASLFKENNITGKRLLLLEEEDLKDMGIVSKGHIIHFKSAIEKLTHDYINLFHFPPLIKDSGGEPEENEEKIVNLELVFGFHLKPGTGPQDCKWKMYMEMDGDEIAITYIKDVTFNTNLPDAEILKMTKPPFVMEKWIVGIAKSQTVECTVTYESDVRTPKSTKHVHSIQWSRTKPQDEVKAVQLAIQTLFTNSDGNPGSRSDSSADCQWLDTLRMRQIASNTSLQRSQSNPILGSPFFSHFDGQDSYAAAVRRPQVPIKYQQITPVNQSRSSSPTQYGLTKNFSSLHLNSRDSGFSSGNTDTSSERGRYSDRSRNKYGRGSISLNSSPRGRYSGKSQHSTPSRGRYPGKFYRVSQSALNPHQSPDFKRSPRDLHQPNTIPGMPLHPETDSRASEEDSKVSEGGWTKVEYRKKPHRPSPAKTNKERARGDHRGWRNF
RET(V804M), sequence (P07949 whole entry V804M): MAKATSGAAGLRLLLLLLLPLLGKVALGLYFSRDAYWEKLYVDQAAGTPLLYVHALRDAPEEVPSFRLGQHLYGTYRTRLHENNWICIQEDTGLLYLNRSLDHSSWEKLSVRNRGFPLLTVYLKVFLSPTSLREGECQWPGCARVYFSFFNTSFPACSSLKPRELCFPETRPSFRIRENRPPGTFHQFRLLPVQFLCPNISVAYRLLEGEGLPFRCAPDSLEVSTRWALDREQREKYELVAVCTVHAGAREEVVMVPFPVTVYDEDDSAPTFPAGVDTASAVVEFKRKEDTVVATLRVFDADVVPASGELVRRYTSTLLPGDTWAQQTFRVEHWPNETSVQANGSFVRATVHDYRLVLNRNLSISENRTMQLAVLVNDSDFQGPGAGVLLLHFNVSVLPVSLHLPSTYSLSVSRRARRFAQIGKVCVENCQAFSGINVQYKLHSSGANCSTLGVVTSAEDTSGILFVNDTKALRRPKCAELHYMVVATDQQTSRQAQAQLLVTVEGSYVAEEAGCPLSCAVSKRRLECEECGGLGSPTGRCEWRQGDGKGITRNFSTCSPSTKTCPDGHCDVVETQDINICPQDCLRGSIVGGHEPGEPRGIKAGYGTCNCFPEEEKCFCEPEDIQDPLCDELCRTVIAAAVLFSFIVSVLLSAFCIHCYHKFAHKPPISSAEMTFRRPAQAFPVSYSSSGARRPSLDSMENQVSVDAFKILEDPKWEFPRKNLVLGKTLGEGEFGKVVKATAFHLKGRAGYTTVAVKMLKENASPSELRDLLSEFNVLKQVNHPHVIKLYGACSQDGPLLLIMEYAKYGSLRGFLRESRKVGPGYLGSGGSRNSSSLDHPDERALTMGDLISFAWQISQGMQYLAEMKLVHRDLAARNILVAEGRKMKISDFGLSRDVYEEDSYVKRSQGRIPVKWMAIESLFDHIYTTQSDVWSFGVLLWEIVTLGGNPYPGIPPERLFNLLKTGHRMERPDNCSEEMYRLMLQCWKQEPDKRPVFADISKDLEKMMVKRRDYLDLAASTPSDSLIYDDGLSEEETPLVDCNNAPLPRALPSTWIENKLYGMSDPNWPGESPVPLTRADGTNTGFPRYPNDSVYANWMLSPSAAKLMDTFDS

- inhibition at 1 µM [1]: 17%
- inhibition at 1 µM [2]: 34%
- inhibition at 1 µM (ANKK1): 24%
- inhibition at 1 µM (CAMK2G): 0%
- inhibition at 1 µM (EGFR(S752-I759del)): 9%
- inhibition at 1 µM (FLT3(R834Q)): 32%
- inhibition at 1 µM (LTK): 12%
- inhibition at 1 µM (LZK): 16%
- inhibition at 1 µM (MAST1): 14%
- inhibition at 1 µM (MET): 0%
- inhibition at 1 µM (MINK): 22%
- inhibition at 1 µM (MTOR): 0%
- inhibition at 1 µM (NEK7): 2%
- inhibition at 1 µM (NLK): 0%
- inhibition at 1 µM (PHKG1): 0%
- inhibition at 1 µM (PIK3C2G): 22%
- inhibition at 1 µM (PRKCD): 1%
- inhibition at 1 µM (PYK2): 0%
- inhibition at 1 µM (RET(V804M)): 0%
- inhibition at 1 µM (SRPK1): 0%
- inhibition at 1 µM (TAOK1): 15%
- inhibition at 1 µM (TNNI3K): 7%
- inhibition at 1 µM (ZAK): 1%
- inhibition at 1 µM (p38-beta): 0%
Compound: CNS(=O)(=O)c1ccc(N(C)C)c(Nc2nc(C)nc3cc(OC)c(OC)cc23)c1 [compound 15, 3-((6,7-dimethoxy-2-methylquinazolin-4-yl)amino)-4-(dimethylamino)-N-methylbenzenesulfonamide]
